Reference: US5504097A, “N-hydroxyureas as 5-lipoxygenase inhibitors and inhibitors of oxidative modification of low density lipoprotein” (American Home Products Corporation, priority 1995, dated 1996)

Columns and labels:
Lipoxygenase = assay: Ex-Vivo Measurement of Lipoxygenase Inhibition in Orally Dosed Rats (LTB4 in A23187-stimulated blood); set-up: species or system Male Sprague Dawley rats; conditions: p.o.
Protocol: 2. Ex-Vivo Measurement of Lipoxygenase Inhibition in Orally Dosed Rats
After an interval of 3 or 6 hours, the rats were anesthetized with metofane (n=4/group) and blood collected in heparinized tubes. White blood cell counts and differentials were made. One ml of blood from each animal was placed in a 5 ml plastic tube in a shaker bath at 37° C. A23187 at a final concentration of 10 μM was added to the blood and the blood vortexed and incubated for 15 min at 37° C. with gentle shaking. Incubation was terminated by vortexing sample and centrifuging immediately at 1200× G for 15 min at 4° C. The plasma was transferred to 15 ml plastic tubes each containing 8 ml of methanol to precipitate protein followed by vortexing. The samples were stored at -70° C. overnight and the next day the samples were centrifuged at 800× G for 15 min to pellet the precipitate. The samples were dried in a Savant SpeedVac Concentrator Model SVC 200H and reconstituted to the original volume with cold RIA or ELISA buffer. The reconstituted samples were stored at -70° C. until assayed. The assay for LTB4 was performed according to the directions of the ^3 H!RIA kit or ELISA kit (Seragen). The total metabolite level in 1 ml of blood is calculated and reported as ng/10^6 neutrophils. Significance is determined by a one-way analysis of variance with LSD comparisons to control (p≤0.05).

LTB4 = assay: Reverse Passive Arthus Reaction (pleurisy), LTB4 in pleural exudate; type: in vivo, male Lewis rats; conditions: p.o.
Protocol: 3. Reverse Passive Arthus Reaction
A reverse passive Arthus reaction is induced in the pleural cavity of male Lewis rats (150-200 g; fasted overnight prior to use) by the intravenous administration of bovine serum albumin (BSA; 4 mg/0.2 ml) followed 30 minutes later by the injection of rabbit anti-BSA (1 mg/2.0 ml; lyophilized IgG fraction; Organon Teknika, West Chester, Pa.) into the right pleural space under halothane anesthesia. Drugs or vehicle (0.5% Tween-80) control are administered orally in a volume of 1 ml/100 g body weight at 1 hour prior to the anti-BSA. Animals are sacrificed at either the time of peak eicosanoid production (i.e. 5 minutes after anti-BSA for immunoreactive T×B2, 10 minutes for immunoreactive LTB4, 20 minutes for immunoreactive LTC4) or at the time of peak neutrophil infiltration (4 hours after anti-BSA) by CO2 inhalation. The pleural cavity is then exposed, the fluid exudate removed by gentle vacuum aspiration and the volume of exudate is recorded. For the determination of cellular infiltration, the pleural cavity is rinsed with 3 ml of 0.1% EDTA in sterile saline, and the recovered wash is pooled with the exudate. Cell number is determined on a model ZBI Coulter counter. For determination of eicosanoid production, undiluted pleural exudate is microfuged and the supernatant is extracted with ethanol (8-10 times volume). Extracts are either stored at -20° C., or are evaporated to dryness under a stream of N2 and reconstituted in radioimmunoassay (RIA) buffer.
Eicosanoids are quantitated by RIA according to the procedure specified by the RIA kit manufacturer (Advanced Magnetics, Cambridge, MA). Briefly, 100 μl of ^3 H-labeled eicosanoid and 100 μl of specific antibody are sequentially added to 100 μl of extracted pleural exudate in BGG-phosphate buffer which contains 0.01M phosphate, 0.1% bovine gamma globulin and 0.1% sodium azide at pH 7.0. Antibody-bound eicosanoid is separated from unbound eicosanoid by the addition of 750 μl of dextran (0.4%)-coated charcoal (Norit A) containing 0.1% sodium azide. The mixture is centrifuged at 2000 RPM at 5° C. for 15 minutes to pellet the charcoal and adsorbed unbound eicosanoid. Antibody-bound labeled eicosanoid is quantitated by counting in a liquid scintillation counter, and is correlated to concentration by a standard curve.

Low Density Lipoprotein = assay: Inhibition of Copper Ion Mediated Oxidation of Low Density Lipoprotein; type: biochemical; conditions: Cu^+2 mediated oxidation of rabbit or monkey LDL
Protocol: 5. Inhibition of Copper Ion Mediated Oxidation of Low Density Lipoprotein
In this in vitro assay, the inhibition of Cu^+2 mediated oxidation of rabbit or monkey LDL by an invention compound is determined spectrophotometricallly. Oxidation of LDL results in the formation of LDL-diene which absorbs light at 532 nm. Inhibition of oxidation of LDL leads to a decrease in absorbance at 532 nm.
Rabbit or monkey LDL is prepared according to the procedures of Havel, Eder and Gragdon, "The Distribution and Chemical Composition of Ultracentrifugally Separated Lipoproteins in Human Serum,: J, Clin. Invest. 34, 1345-1353 (1955) and Parhtasarathy, Wieland and Steriberg, "A Role for Endothelial Cell Lipoxygenase in the Oxidative Modification of Low Density Lipoprotein," Proc, Natl. Acad. Sci. USA 86, 1046-1050 (1989). Test compound solutions are prepared by dissolving the invention compounds in ethanol at concentrations up to 248 μM. The medium used is Dulbecco's phosphate buffered saline containing 0.5 mg/ml bovine serum albumin. For standards, 0 to 10 μl of an aqueous solution of 1,1,3,3-tetraethoxypropane (1 μmol/ml H2 O) in 4.1 ml of medium is used.
Test compound solution (100 μl) is added to 4 ml of medium in incubation tubes. To each tube is added 10 μl of LDL solution and 25 μl of aqueous copper sulfate solution (1.32 mg/ml H2 O ). The tubes are incubated at 37° C. for 90 minutes and the oxidation reaction quenched by addition of 1 ml of thiobarbituric acid solution (0.67% in 50% acetic acid). The tubes are heated at 90° C. for 1 hour, then chilled in an ice bath and the chromophore extracted into 2 ml of n-butanol. Absorbence is read at 532 nm and the results are reported as nmols of malondialdehyde equivalents.
Significant differences (p<0.05) are determined by the Dunnett T-test or by the Student-Newman-Keuls Test for significant differences between means. The assay is conducted using several concentrations I! of the inhibitor test compounds. The LDL solution concentrations at different experiments were either 1.5 mg/ml, 2.5 mg/ml or 10.3 mg/ml. The IC50 is determined by non-linear regression, plotting log I! vs. % inhibition. (Reference: K. Yagi, Biochemical Medicine 15, 212-216 (1976)).

[1] = 5 mg/kg, pretreatment period 6 hr

IC50 (Low Density Lipoprotein) [µM] | Compound | % Inhibition of LTB4 (Lipoxygenase; 10 mg/kg, pretreatment period 3 hr) [%] | % Inhibition of LTB4 (Lipoxygenase; 10 mg/kg, pretreatment period 6 hr) [%] | % Inhibition of LTB4 Synthesis (LTB4; 10 mg/kg) [%] | % Inhibition of LTB4 Synthesis (LTB4; 25 mg/kg) [%] | % Inhibition of LTB4 (Lipoxygenase; [1]) [%]
1.1 | Cc1oc(-c2ccccc2)nc1COc1ccc(CN(O)C(N)=O)cc1 [Example 1, 1-Hydroxy-1-4-(5-methyl-2-phenyl-oxazol-4-ylmethoxy)-benzyl!-urea] | 84 | 75 | 36 | 69 | –
– | Cc1oc(-c2ccc(C(F)(F)F)cc2)nc1COc1ccc(CN(O)C(N)=O)cc1 [Example 6, 1-Hydroxy-1-4-5-methyl-2-(4-trifluoromethyl-phenyl)-oxazol-4-ylmethoxy!-benzyl!-urea] | – | – | 45 | – | 70
– | NC(=O)N(O)Cc1ccc(OCc2coc(-c3ccccc3)n2)cc1 [Example 9, 1-Hydroxy-1-4-(2-phenyl-oxazol-4-ylmethoxy)-benzyl!-urea] | – | – | 60 | – | 60
– | NC(=O)N(O)Cc1ccc(OCc2csc(-c3ccccc3)n2)cc1 [Example 10, 1-Hydroxy-1-4-(2-phenyl-thiazol-4-ylmethoxy)-benzyl!-urea] | – | – | 99 | – | 67
